pKi: −log10 of the molar value. Counter-ions that a name gives are not always drawn. A value given as a limit tells only on which side of the number the result lay.

Among the data in patent US7723329B2, “Substituted-3-sulfonylindazole derivatives as 5-hydroxytryptamine-6 ligands” (Wyeth LLC, priority 2005, dated 2010) are melting point and Ki values, retold here.

Series [1] deals with T1, human cloned 5-HT6 receptors (Homo sapiens, UniProt P50406).
T1 construct: expressed in transfected cells; host or cells: HeLa cells
Kind of series: 5-HT6 binding affinity, [3H]-LSD displacement. The note with it: membranes of Hela cells expressing human cloned 5-HT6 receptors; [3H]-LSD 3.0 nM; 120 minutes at room temperature.

T1 sequence (P50406 whole entry): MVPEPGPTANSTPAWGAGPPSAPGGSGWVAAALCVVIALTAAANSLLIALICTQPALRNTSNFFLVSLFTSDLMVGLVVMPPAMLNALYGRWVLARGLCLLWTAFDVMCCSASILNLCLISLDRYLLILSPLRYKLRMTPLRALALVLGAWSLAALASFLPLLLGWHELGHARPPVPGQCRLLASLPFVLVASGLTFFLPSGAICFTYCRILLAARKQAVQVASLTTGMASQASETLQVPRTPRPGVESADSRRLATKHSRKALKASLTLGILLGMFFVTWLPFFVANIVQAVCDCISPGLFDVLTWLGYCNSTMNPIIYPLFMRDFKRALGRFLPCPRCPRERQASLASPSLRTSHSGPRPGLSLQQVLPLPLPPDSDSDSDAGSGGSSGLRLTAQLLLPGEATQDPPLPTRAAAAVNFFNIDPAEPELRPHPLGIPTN

Broadly, the melting point is the temperature, or range, at which the solid turns liquid. As to `CN(C)CCOCc1ccc2[nH]nc(S(=O)(=O)c3cccc4ccccc34)c2c1` (as salt: HCl) [Example 156, N,N-Dimethyl-2-{[3-(1-naphthylsulfonyl)-1H-indazol-5-yl]methoxy}ethanamine], the melting point is above 200 °C.

Compound `CN1CCN(Cc2ccc3[nH]nc(S(=O)(=O)c4cccc5ccccc45)c3c2)CC1` (as salt: HCl) [Example 196] returned a melting point above 200 °C.

Take `CC1CN(Cc2ccc3[nH]nc(S(=O)(=O)c4cccc5ccccc45)c3c2)CCN1` (stereo not drawn) (as salt: HCl) [Example 197]: the melting point is above 200 °C.

`CC1CN(Cc2ccc3[nH]nc(S(=O)(=O)c4cccc5ccccc45)c3c2)CC(C)N1` (stereo not drawn) (as salt: HCl) [Example 198] showed a melting point above 200 °C.

The compound `C[C@H]1CN(Cc2ccc3[nH]nc(S(=O)(=O)c4cccc5ccccc45)c3c2)CCN1` (as salt: HCl) [Example 199] displayed a melting point of 178 to 181 °C.

Compound `C[C@@H]1CN(Cc2ccc3[nH]nc(S(=O)(=O)c4cccc5ccccc45)c3c2)CCN1` (as salt: HCl) [Example 200] returned a melting point of 179 to 181 °C.

`N[C@@H]1CCN(Cc2ccc3[nH]nc(S(=O)(=O)c4cccc5ccccc45)c3c2)C1` (as salt: HCl) [Example 201] displayed a melting point above 200 °C.

Take `O=S(=O)(c1ccccc1)c1n[nH]c2ccc(OCCN3CCCCC3)cc12` (as salt: hydrochloride) [Example 3, 3-Benzenesulfonyl-5-(2-piperidin-1-yl-ethoxy)-1H-indazole]: the melting point was in the range of 249 to 250 °C.

Regarding `CCNCCOc1ccc2[nH]nc(S(=O)(=O)c3ccccc3)c2c1` (as salt: hydrochloride) [Example 4, [2-(3-Benzenesulfonyl-1H-indazol-5-yloxy)-ethyl]-ethyl-amine], the melting point is 248 to 250 °C (dec.).

In the case of `CC(C)NCCOc1ccc2[nH]nc(S(=O)(=O)c3ccccc3)c2c1` (as salt: hydrochloride) [Example 6, [2-(3-Benzenesulfonyl-1H-indazol-5-yloxy)-ethyl]-isopropyl-amine], the melting point was 275 to 277 °C (dec.).

In the case of `CCCCNCCOc1ccc2[nH]nc(S(=O)(=O)c3ccccc3)c2c1` (as salt: hydrochloride) [Example 7, [2-(3-Benzenesulfonyl-1H-indazol-5-yloxy)-ethyl]-butyl-amine], the melting point is 271 to 273 °C (dec.).

Take `O=S(=O)(c1ccccc1)c1n[nH]c2ccc(OCCNC3CC3)cc12` (as salt: hydrochloride) [Example 8, [2-(3-Benzenesulfonyl-1H-indazol-5-yloxy)-ethyl]-cyclopropyl-amine]: the melting point is 184 to 185 °C (dec.).

`O=S(=O)(c1ccccc1)c1n[nH]c2ccc(OCCNC3CCCC3)cc12` (as salt: hydrochloride) [Example 9, 3-Benzenesulfonyl-5-(2-cyclopentyl-1-yl-ethoxy)-1H-indazole]: the melting point is 255 to 258 °C (dec.).

With `NCCOc1ccc2[nH]nc(S(=O)(=O)c3ccccc3)c2c1` (as salt: hydrochloride) [Example 13, 2-(3-Benzenesulfonyl-1H-indazol-5-yloxy)-ethylamine], the melting point was above 300 °C.

As to `CNCCOc1ccc2c(c1)c(S(=O)(=O)c1cccc3ccccc13)nn2C` (as salt: hydrochloride) [Example 40, Methyl-{2-[1-methyl-3-(naphthalene-1-sulfonyl)-1H-indazol-5-yloxy]-ethyl}-amine], the melting point is 272 to 274 °C (dec.).

As to `CCNCCOc1ccc2c(c1)c(S(=O)(=O)c1cccc3ccccc13)nn2C` (as salt: hydrochloride) [Example 44, Ethyl-{2-[1-methyl-3-(naphthalene-1-sulfonyl)-1H-indazol-5-yloxy]-ethyl}-amine], the melting point is 276 to 277 °C (dec.).

By pKi is commonly meant the Ki on a negative log10 scale, so that one unit is a factor of ten. A higher pKi goes with a small Ki. For `CNCCc1cccc2c(S(=O)(=O)c3ccccc3)n[nH]c12` [Example 173, N-Methyl-N-{2-[3-(phenylsulfonyl)-1H-indazol-7-yl]ethyl}amine trifluoroacetate], in series [1], the negative logarithm of the Ki (pKi) is 8.00 to 11.00.

The compound `CN(C)CCc1ccc2[nH]nc(S(=O)(=O)c3ccccc3)c2c1` [Example 176, N,N-Dimethyl-N-{2-[3-(phenylsulfonyl)-1H-indazol-5-yl]ethyl}amine hydrochloride] had a pKi in series [1] of 7.60 to 7.96.

Regarding `CN(C)CCCc1ccc2[nH]nc(S(=O)(=O)c3ccccc3)c2c1` [Example 177, N,N-Dimethyl-N-{3-[3-(phenylsulfonyl)-1H-indazol-5-yl]propyl}amine trifluoroacetate], the pKi in series [1] is 7.60 to 7.96.

In series [1], `O=S(=O)(c1ccccc1)c1n[nH]c2ccc(CCCNC3CC3)cc12` [Example 178, N{3-[3-(Phenylsulfonyl)-1H-indazol-5-yl]propyl}cyclopropanamine trifluoroacetate] showed a negative logarithm of the Ki (pKi) of 7.60 to 7.96.

In series [1], `CC(C)NCCCc1ccc2[nH]nc(S(=O)(=O)c3ccccc3)c2c1` [Example 179, N-Isopropyl-N-{3-[3-(phenylsulfonyl)-1H-indazol-5-yl]propyl}amine trifluoroacetate] had a pKi below 7.35.

The compound `NCCCc1ccc2[nH]nc(S(=O)(=O)c3ccccc3)c2c1` [Example 180, {3-[3-(Phenylsulfonyl)-1H-indazol-5-yl]propyl}amine trifluoroacetate] had a pKi in series [1] of 7.60 to 7.96.

The compound `NCCCCc1ccc2[nH]nc(S(=O)(=O)c3ccccc3)c2c1` [Example 181, {4-[3-(Phenylsulfonyl)-1H-indazol-5-yl]butyl}amine hydrochloride] gave a negative-log Ki (pKi) in series [1] of 7.46 to 7.59.

On to `CN(C)CCCc1ccc2[nH]nc(S(=O)(=O)c3cccc4ccccc34)c2c1` [Example 182, N,N-Dimethyl-N-{3-[3-(naphthylsulfonyl)-1H-indazol-5-yl]propyl}amine hydrochloride], for which the negative logarithm of the Ki (pKi) in series [1] is 8.00 to 11.00.

In series [1], `NCCCCc1ccc2[nH]nc(S(=O)(=O)c3cccc4ccccc34)c2c1` [Example 189, {4-[3-(Naphthylsulfonyl)-1H-indazol-5-yl]butyl}amine hydrochloride] showed a negative logarithm of the Ki (pKi) of 8.00 to 11.00.

For `O=S(=O)(c1cccc2ccccc12)c1n[nH]c2ccc(CN3CCNCC3)cc12` [Example 195, 3-(1-Naphthylsulfonyl)-5-(piperazin-1-ylmethyl)-1H-indazole], the pKi in series [1] is 8.00 to 11.00.

In turn, `CN1CCN(Cc2ccc3[nH]nc(S(=O)(=O)c4cccc5ccccc45)c3c2)CC1` [Example 196] had a pKi in series [1] of 8.00 to 11.00.

`CC1CN(Cc2ccc3[nH]nc(S(=O)(=O)c4cccc5ccccc45)c3c2)CCN1` (stereo not drawn) [Example 197]: in series [1], the negative logarithm of the Ki (pKi) was 8.00 to 11.00.

Consider `CC1CN(Cc2ccc3[nH]nc(S(=O)(=O)c4cccc5ccccc45)c3c2)CC(C)N1` (stereo not drawn) [Example 198], for which, in series [1], the pKi was 8.00 to 11.00.

For `C[C@H]1CN(Cc2ccc3[nH]nc(S(=O)(=O)c4cccc5ccccc45)c3c2)CCN1` [Example 199], in series [1], the pKi is 7.60 to 7.96.

Take `C[C@@H]1CN(Cc2ccc3[nH]nc(S(=O)(=O)c4cccc5ccccc45)c3c2)CCN1` [Example 200]: in series [1], the pKi is 8.00 to 11.00.

`N[C@@H]1CCN(Cc2ccc3[nH]nc(S(=O)(=O)c4cccc5ccccc45)c3c2)C1` [Example 201] gave a pKi in series [1] of 8.00 to 11.00.

Take `O=C(c1ccc2[nH]nc(S(=O)(=O)c3cccc4ccccc34)c2c1)N1CCNCC1` [Example 202, 3-(1-Naphthylsulfonyl)-5-(piperazin-1 ylcarbonyl)-1H-indazole]: in series [1], the pKi is below 7.35.
